US10550105B2 (Ribon Therapeutics Inc., priority 2018, dated 2020)
pIC50: −log10 of the molar value.

Each compound was assayed against PARP7 (Homo sapiens (Human), UniProt Q7Z3E1) (assay: Enzymatic assay for inhibition of PARP7: TR-FRET displacement of biotinylated Probe A from the TIPARP active site). Details: Table A-1.
Assay type: binding
How it was run: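 Compounds were tested as dose-response series, and reactions were incubated a further 30 min at 25° C. TR-FRET was read at 320 nm excitation with 615 and 665 nm emission after a 90 μs delay. The 665/615 ratio gave the TIPARP–Probe A complex, and % inhibition was fitted against concentration.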

Chain of PARP7 (Q7Z3E1 whole entry): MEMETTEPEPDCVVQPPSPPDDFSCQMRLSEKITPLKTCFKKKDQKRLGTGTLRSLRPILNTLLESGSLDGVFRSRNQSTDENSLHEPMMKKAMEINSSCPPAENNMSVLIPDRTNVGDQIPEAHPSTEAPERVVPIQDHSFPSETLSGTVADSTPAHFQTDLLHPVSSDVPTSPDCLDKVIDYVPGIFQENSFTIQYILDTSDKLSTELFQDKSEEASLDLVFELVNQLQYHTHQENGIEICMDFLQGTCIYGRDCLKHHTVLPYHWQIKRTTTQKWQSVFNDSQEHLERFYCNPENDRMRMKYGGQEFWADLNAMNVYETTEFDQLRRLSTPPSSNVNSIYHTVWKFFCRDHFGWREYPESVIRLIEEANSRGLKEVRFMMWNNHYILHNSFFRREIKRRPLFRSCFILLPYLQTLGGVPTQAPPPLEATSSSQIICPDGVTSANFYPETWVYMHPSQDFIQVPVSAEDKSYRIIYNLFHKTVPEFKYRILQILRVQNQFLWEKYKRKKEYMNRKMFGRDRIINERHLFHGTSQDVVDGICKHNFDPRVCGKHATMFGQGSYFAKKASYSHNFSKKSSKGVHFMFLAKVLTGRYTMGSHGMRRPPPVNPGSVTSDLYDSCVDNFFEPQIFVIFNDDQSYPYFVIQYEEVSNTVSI

| pIC50 | SMILES |
| --- | --- |
| > 7.00 | COC[C@@H](COCCC(=O)N1CCN(c2cnc(C)cn2)CC1)Nc1cn[nH]c(=O)c1C(F)(F)F [Example 695, (S)-5-((1-Methoxy-3-(3-(4-(5-methylpyrazin-2-yl)piperazin-1-yl)-3-oxopropoxy)propan-2-yl)amino)-4-(trifluoromethyl)pyridazin-3(2H)-one] |
| > 7.00 | COC[C@@H](COCCC(=O)N1CCN(c2cnc(Cl)cn2)CC1)Oc1cn[nH]c(=O)c1C(F)(F)F [Example 696, (S)-5-((1-(3-(4-(5-Chloropyrazin-2-yl)piperazin-1-yl)-3-oxopropoxy)-3-methoxypropan-2-yl)oxy)-4-(trifluoromethyl)pyridazin-3(2H)-one] |
| 6.00 to 7.00 | COC[C@H](COCCC(=O)N1CCN(c2cnc(Cl)cn2)CC1)Oc1cn[nH]c(=O)c1C(F)(F)F [Example 697, (R)-5-((1-(3-(4-(5-Chloropyrazin-2-yl)piperazin-1-yl)-3-oxopropoxy)-3-methoxypropan-2-yl)oxy)-4-(trifluoromethyl)pyridazin-3(2H)-one] |
| > 7.00 | CO[C@@H](C)[C@@H](COCCC(=O)N1CCN(c2ncc(C(F)(F)F)cn2)CC1)Nc1cn[nH]c(=O)c1C(F)(F)F [Example 698, 5-(((2R,3S)-3-Methoxy-1-(3-oxo-3-(4-(5-(trifluoromethyl)pyrimidin-2-yl)piperazin-1-yl)propoxy)butan-2-yl)amino)-4-(trifluoromethyl)pyridazin-3(2H)-one] |
| > 7.00 | CO[C@H](C)[C@@H](COCCC(=O)N1CCN(c2ncc(C(F)(F)F)cn2)CC1)Nc1cn[nH]c(=O)c1C(F)(F)F [Example 699, 5-(((2R,3R)-3-Methoxy-1-(3-oxo-3-(4-(5-(trifluoromethyl)pyrimidin-2-yl)piperazin-1-yl)propoxy)butan-2-yl)amino)-4-(trifluoromethyl)pyridazin-3(2H)-one] |
| > 7.00 | C[C@@H](COCCC(=O)N1CCN(c2ncc(C(F)(F)F)cn2)CC1)Sc1cn[nH]c(=O)c1Br [Example 700, (S)-4-Bromo-5-((1-(3-oxo-3-(4-(5-(trifluoromethyl)pyrimidin-2-yl)piperazin-1-yl)propoxy)propan-2-yl)thio)pyridazin-3(2H)-one] |
| > 7.00 | C[C@@H](COCCC(=O)N1CCN(c2ncc(C(F)(F)F)cn2)CC1)Sc1cn[nH]c(=O)c1Cl [Example 701, (S)-4-Chloro-5-((1-(3-oxo-3-(4-(5-(trifluoromethyl)pyrimidin-2-yl)piperazin-1-yl)propoxy)propan-2-yl)thio)pyridazin-3(2H)-one] |
| > 7.00 | C[C@@H](CSCCC(=O)N1CCN(c2ncc(C(F)(F)F)cn2)CC1)Nc1cn[nH]c(=O)c1C(F)(F)F [Example 702, (S)-5-((1-((3-Oxo-3-(4-(5-(trifluoromethyl)pyrimidin-2-yl)piperazin-1-yl)propyl)thio)propan-2-yl)amino)-4-(trifluoromethyl)pyridazin-3(2H)-one] |
| 6.00 to 7.00 | C[C@H](CSCCC(=O)N1CCN(c2ncc(C(F)(F)F)cn2)CC1)Nc1cn[nH]c(=O)c1C(F)(F)F [Example 703, (R)-5-((1-((3-Oxo-3-(4-(5-(trifluoromethyl)pyrimidin-2-yl)piperazin-1-yl)propyl)thio)propan-2-yl)amino)-4-(trifluoromethyl)pyridazin-3(2H)-one] |
| > 7.00 | O=C(CCOC[C@@H](CCO)Oc1cn[nH]c(=O)c1C(F)(F)F)N1CCN(c2ncc(Cl)cn2)CC1 [Example 704, (R)-5-((1-(3-(4-(5-Chloropyrimidin-2-yl)piperazin-1-yl)-3-oxopropoxy)-4-hydroxybutan-2-yl)oxy)-4-(trifluoromethyl)pyridazin-3(2H)-one] |
| 6.00 to 7.00 | O=C(CCOC[C@H](CCO)Oc1cn[nH]c(=O)c1C(F)(F)F)N1CCN(c2ncc(Cl)cn2)CC1 [Example 705, (S)-5-((1-(3-(4-(5-Chloropyrimidin-2-yl)piperazin-1-yl)-3-oxopropoxy)-4-hydroxybutan-2-yl)oxy)-4-(trifluoromethyl)pyridazin-3(2H)-one] |
| > 7.00 | C[C@@H](COCCC(=O)N1CCN(c2ncc(C(F)F)cn2)CC1)Nc1cn[nH]c(=O)c1C(F)(F)F [Example 706, (S)-5-((1-(3-(4-(5-(Difluoromethyl)pyrimidin-2-yl)piperazin-1-yl)-3-oxopropoxy)propan-2-yl)amino)-4-(trifluoromethyl)pyridazin-3(2H)-one] |
| > 7.00 | C[C@@H](COCCC(=O)N1CCN(c2ncc(C(C)(F)F)cn2)CC1)Nc1cn[nH]c(=O)c1C(F)(F)F [Example 707, (S)-5-((1-(3-(4-(5-(1,1-Difluoroethyl)pyrimidin-2-yl)piperazin-1-yl)-3-oxopropoxy)propan-2-yl)amino)-4-(trifluoromethyl)pyridazin-3(2H)-one] |
| > 7.00 | C[C@@H](COCCC(=O)N1CCN(c2ncc(C(F)(F)F)s2)CC1)Oc1cn[nH]c(=O)c1C(F)(F)F [Example 708, (S)-5-((1-(3-Oxo-3-(4-(5-(trifluoromethyl)thiazol-2-yl)piperazin-1-yl)propoxy)propan-2-yl)oxy)-4-(trifluoromethyl)pyridazin-3(2H)-one] |
| > 7.00 | C[C@@H](COCCC(=O)N1CCN(c2cnc(C(F)(F)F)s2)CC1)Nc1cn[nH]c(=O)c1C(F)(F)F [Example 709, (S)-5-((1-(3-Oxo-3-(4-(2-(trifluoromethyl)thiazol-5-yl)piperazin-1-yl)propoxy)propan-2-yl)amino)-4-(trifluoromethyl)pyridazin-3(2H)-one] |
| 6.00 to 7.00 | C[C@@H](COCCC(=O)N1CCC(Nc2ncc(C(F)(F)F)cn2)C1)Nc1cn[nH]c(=O)c1C(F)(F)F (stereo partly drawn) [Example 710, 5-(((2S)-1-(3-Oxo-3-(3-((5-(trifluoromethyl)pyrimidin-2-yl)amino)pyrrolidin-1-yl)propoxy)propan-2-yl)amino)-4-(trifluoromethyl)pyridazin-3(2H)-one] |
| > 7.00 | C[C@@H](COCCC(=O)N1CCN(c2ncc(C#N)s2)CC1)Oc1cn[nH]c(=O)c1C(F)(F)F [Example 711, (S)-2-(4-(3-(2-((6-Oxo-5-(trifluoromethyl)-1,6-dihydropyridazin-4-yl)oxy)propoxy)propanoyl)piperazin-1-yl)thiazole-5-carbonitrile] |
| > 7.00 | COC[C@@H](COCCC(=O)N1CCN(c2ncc(C(F)(F)F)s2)CC1)Nc1cn[nH]c(=O)c1C(F)(F)F [Example 712, (S)-5-((1-Methoxy-3-(3-oxo-3-(4-(5-(trifluoromethyl)thiazol-2-yl)piperazin-1-yl)propoxy)propan-2-yl)amino)-4-(trifluoromethyl)pyridazin-3(2H)-one] |
| > 7.00 | COC[C@@H](COCCC(=O)N1CCN(c2ncc(C#N)s2)CC1)Nc1cn[nH]c(=O)c1C(F)(F)F [Example 713, (S)-2-(4-(3-(3-Methoxy-2-((6-oxo-5-(trifluoromethyl)-1,6-dihydropyridazin-4-yl)amino)propoxy)propanoyl)piperazin-1-yl)thiazole-5-carbonitrile] |
| > 7.00 | [2H]C1([2H])N(C(=O)CCOC[C@H](C)Oc2cn[nH]c(=O)c2C(F)(F)F)C([2H])([2H])C([2H])([2H])N(c2ccc(C#N)cn2)C1([2H])[2H] [Example 714, (S)-6-(4-(3-(2-((6-Oxo-5-(trifluoromethyl)-1,6-dihydropyridazin-4-yl)oxy)propoxy)propanoyl)piperazin-1-yl-2,2,3,3,5,5,6,6-d8)nicotinonitrile] |
